Consider 36 molecules from ChEMBL document CHEMBL1122453, “Structure-activity relationships in the antiinflammatory steroids: a pattern-recognition approach” (1983).

Active and inactive are the calls of the source. The rule behind the calls is not given here.

For experiment [1], the species on record is Homo sapiens.
For experiment [2], the species on record is Rattus norvegicus. The experiment can be described thus: Experimental relative rat granuloma activity (relative to hydrocortisone and hydrocortisone 21-acetate); 0.15-0.5. It counts as functional.
The species named for experiment [3] is Rattus norvegicus. Description: Anti-inflammatory effect in rat granuloma assay, activity relative to hydrocortisone and hydrocortisone 21-acetate. Format: functional.
Experiment [4] is filed under the species Homo sapiens. Description: Potency relative to fluocinolone 16,17-acetonide(Experimental vasoconstictor activity) in human. It counts as functional.
The species entered for experiment [5] is Homo sapiens. Description: Potency relative to fluocinolone 16,17-acetonide(Experimental vasoconstictor activity) in human;NA = Not active. It counts as functional, organism-based.
The species named for experiment [6] is Homo sapiens. Description: Potency relative to fluocinolone 16,17-acetonide(Experimental vasoconstictor activity)in human; NA= Not active. Format: functional, organism-based.
Experiment [7] is filed under the species Homo sapiens. The experiment can be described thus: Potency relative to fluocinolone 16,17-acetonide in the human vasoconstictor test. It counts as functional.
The species named for experiment [8] is Homo sapiens. The experiment can be described thus: Potency relative to fluocinolone 16,17-acetonide(Experimental vasoconstictor activity) in human;NA =Not active. Format: functional, organism-based.
The species entered for experiment [9] is Homo sapiens. Description: PPotency relative to fluocinolone 16,17-acetonide(Experimental vasoconstictor activity) in human; NA= Not active. It counts as functional, organism-based.

For `CCCC(=O)OCC(=O)[C@@]1(OC(C)=O)CCC2C3C[C@H](F)C4=CC(=O)C=CC4(C)[C@@]3(F)C(O)CC21C` (some centres not stated), in the experiment filed under Homo sapiens [1], the Potency entry is “inactive”.

As for `CC(=O)OCC(=O)[C@]1(O)C2(C)C[C@H](O)C3C(CCC4=CC(=O)C=CC43C)C2C[C@@]1(C)O` (some centres not stated), in the experiment listed under Homo sapiens [1], the Potency entry is “inactive”.

For `CC(=O)OCC(=O)[C@@]1(O)CCC2C3CCC4=CC(=O)C=CC4(C)C3[C@@H](Cl)CC21C` (some centres not stated), in the experiment filed under Rattus norvegicus [2], the Potency amounted to 0.15.

`C[C@@H]1CC2C3CCC4=CC(=O)C=CC4(C)[C@@]3(F)C(O)CC2(C)C1C(=O)CO` (some centres not stated) [DEOXYMETHASONE]: the Potency entry in the experiment filed under Homo sapiens [1] is “inactive”. Further, the Potency in the experiment filed under Rattus norvegicus [3] came to 10.

As to `C[C@@H]1CC2C3CCC4=CC(=O)C=CC4(C)[C@@]3(F)[C@@H](O)CC2(C)[C@@]1(C)C(=O)CO` (some centres not stated), the Potency entry in the experiment filed under Homo sapiens [1] was “inactive”.

Regarding `CC1(C)O[C@@H]2C[C@H]3[C@@H]4C[C@H](F)C5=CC(=O)C=C[C@]5(C)[C@@]4(F)[C@@H](O)C[C@]3(C)[C@]2(C(=O)CO)O1` [FLUOCINOLONE ACETONIDE], the Potency is listed as 450 in the experiment listed under Rattus norvegicus [3] and 100 in the experiment listed under Homo sapiens [4].

Take `C[C@@H]1CC2C3C[C@H](Cl)C4=CC(=O)C=CC4(C)C3C(O)CC2(C)C1C(=O)COC(=O)C(C)(C)C` (some centres not stated): the Potency entry in the experiment filed under Homo sapiens [1] was “inactive”.

For `CC(=O)OCC(=O)[C@@]1(O)[C@H](C)CC2C3C[C@H](F)C4=CC(=O)C=CC4(C)C3C(O)CC21C` (some centres not stated), in the experiment listed under Rattus norvegicus [3], the Potency is 60. The Potency result in the experiment listed under Homo sapiens [5] is “inactive”.

For the molecule `CC1(C)O[C@@H]2CC3C4CCC5=CC(=O)CCC5(C)C4[C@@H](O)CC3(C)[C@]2(C(=O)CCl)O1` (some centres not stated), the Potency result in the experiment listed under Homo sapiens [1] is “inactive”.

As to `C[C@@H]1C[C@H]2[C@@H]3C[C@H](F)C4=CC(=O)C=C[C@]4(C)[C@H]3[C@@H](O)C[C@]2(C)[C@@]1(O)C(=O)CO` [PARAMETHASONE], in the experiment filed under Homo sapiens [1], the Potency result was “inactive”. This molecule had a Potency in the experiment listed under Rattus norvegicus [3] of 63.6.

Consider `CCCCC(=O)OCC(=O)[C@H]1[C@H](C)C[C@H]2[C@@H]3C[C@H](F)C4=CC(=O)C=C[C@]4(C)[C@@]3(F)[C@@H](O)C[C@@]21C`, for which the Potency result in the experiment listed under Homo sapiens [6] is “inactive”.

In the case of `C[C@@H]1C[C@H]2[C@@H]3CCC4=CC(=O)C=C[C@]4(C)[C@@]3(F)[C@@H](O)C[C@]2(C)[C@@]1(O)C(=O)CO` [DEXAMETHASONE], the Potency in the experiment listed under Homo sapiens [7] came to 1; in the experiment listed under Rattus norvegicus [3], 200.

In the case of `C[C@]12C=CC(=O)C=C1CC[C@@H]1[C@@H]2[C@@H](O)C[C@@]2(C)[C@H]1CC[C@]2(O)C(=O)CO` [PREDNISOLONE], the Potency in the experiment listed under Homo sapiens [7] amounted to 0.1; in the experiment filed under Rattus norvegicus [3], 3.

As to `C[C@@H]1CC2C3C[C@H](F)C4=CC(=O)C=CC4(C)[C@@]3(F)C(O)CC2(C)C1C(=O)COC(=O)C(C)(C)C` (some centres not stated), the Potency result in the experiment filed under Homo sapiens [1] is “inactive”.

`CC1(C)O[C@@H]2C[C@H]3[C@@H]4CCC5=CC(=O)C=C[C@]5(C)[C@H]4[C@@H](O)C[C@]3(C)[C@]2(C(=O)CO)O1` [DESONIDE]: the Potency result in the experiment filed under Homo sapiens [8] is “inactive”. Also, the Potency in the experiment listed under Rattus norvegicus [3] came out at 66.2.

On to `CCC(=O)O[C@]1(C(=O)C(=O)OCCl)CC[C@H]2C3CCC4=CC(=O)CCC4(C)C3[C@@H](O)CC21C` (some centres not stated), for which the Potency result in the experiment filed under Homo sapiens [1] was “inactive”.

On to `C[C@H]1C[C@@H]2[C@H]([C@@H](O)C[C@@]3(C)[C@H]2CC[C@]3(O)C(=O)CO)[C@@]2(C)C=CC(=O)C=C12` (stereo in doubt) [METHYLPREDNISOLONE], for which the Potency in the experiment filed under Homo sapiens [7] was 0.1; in the experiment filed under Rattus norvegicus [3] it was 5.

Turning to `CCCC(=O)O[C@]1(C(=O)CO)CC[C@H]2[C@@H]3CCC4=CC(=O)CC[C@]4(C)[C@H]3[C@@H](O)C[C@@]21C` [HYDROCORTISONE BUTYRATE], the Potency in the experiment filed under Homo sapiens [7] was 50; in the experiment listed under Rattus norvegicus [3], 1.

As for `CCC(=O)O[C@]1(C(=O)OCCl)CCC2C3CCC4=CC(=O)CCC4(C)C3[C@@H](O)CC21C` (some centres not stated), the Potency result in the experiment filed under Homo sapiens [1] was “inactive”.

On to `CC(=O)OCC(=O)[C@@]1(O)CC[C@H]2[C@@H]3CCC4=CC(=O)CC[C@]4(C)[C@@]3(F)[C@@H](O)C[C@@]21C` [FLUDROCORTISONE ACETATE], for which the Potency in the experiment listed under Homo sapiens [7] was found to be 1; in the experiment listed under Rattus norvegicus [3] it was 7.3.

In the case of `CC12CCC(=O)C=C1CCC1C2[C@@H](O)CC2(C)C1CC[C@]2(O)C(=O)OCCl` (some centres not stated), the Potency result in the experiment filed under Homo sapiens [1] is “inactive”.

Regarding `CC(=O)OCC(=O)[C@@]1(O)CC[C@H]2[C@@H]3CCC4=CC(=O)CC[C@]4(C)[C@H]3[C@@H](O)C[C@@]21C` [HYDROCORTISONE ACETATE], the Potency in the experiment filed under Homo sapiens [7] and in the experiment listed under Rattus norvegicus [3] was 1 each time.

Regarding `CC1(C)O[C@@H]2CC3C4C[C@H](F)C5=CC(=O)C=CC5(C)[C@@]4(F)[C@@H](O)CC3(C)[C@]2(C(=O)C(=O)OCCl)O1` (some centres not stated), the Potency entry in the experiment listed under Homo sapiens [1] is “inactive”.

Consider `C[C@]12C[C@H](O)[C@H]3[C@@H](CCC4=CC(=O)CC[C@@]43C)[C@@H]1CC[C@@H]2C(=O)CO` [CORTICOSTERONE], for which the Potency in the experiment listed under Homo sapiens [7] and in the experiment listed under Rattus norvegicus [3] was 0.3 in each case.

For the molecule `CCCCC(=O)O[C@]1(C(=O)COC(C)=O)CCC2C3CCC4=CC(=O)C=CC4(C)C3C(O)CC21C` (some centres not stated), the Potency entry in the experiment listed under Homo sapiens [1] is “inactive”.

As for `C[C@@H]1C[C@H]2[C@@H]3C[C@H](F)C4=CC(=O)C=C[C@]4(C)[C@H]3[C@@H](O)C[C@]2(C)[C@H]1C(=O)CO` [FLUOCORTOLONE], the Potency in the experiment filed under Rattus norvegicus [3] was found to be 350. Moreover, the Potency result in the experiment listed under Homo sapiens [6] is “inactive”.

In the case of `CC1(C)O[C@@H]2CC3C4CCC5=CC(=O)C=CC5(C)C4[C@@H](O)CC3(C)[C@]2(C(=O)CCl)O1` (some centres not stated), the Potency result in the experiment filed under Homo sapiens [9] is “inactive”.

`C[C@H]1CC2C3CCC4=CC(=O)C=CC4(C)[C@@]3(F)[C@@H](O)CC2(C)[C@@]1(O)C(=O)CCl` (some centres not stated): the Potency entry in the experiment filed under Homo sapiens [1] was “inactive”.

With `CC(=O)OCC(=O)[C@@]1(O)CC[C@H]2[C@@H]3CCC4=CC(=O)C=C[C@]4(C)[C@H]3[C@@H](O)C[C@@]21C` [PREDNISOLONE ACETATE], the Potency in the experiment listed under Homo sapiens [7] is 1; in the experiment listed under Rattus norvegicus [3] it was 3.

`CC(=O)OCC(=O)[C@@]1(O)CCC2C3CCC4=CC(=O)CCC4(C)[C@@]3(Cl)[C@@H](Cl)CC21C` (some centres not stated) came in with a Potency in the experiment listed under Rattus norvegicus [2] of 0.15.

Turning to `CCC(=O)[C@@]1(C)[C@H](C)CC2C3CCC4=CC(=O)C=C[C@]4(C)C3[C@@H](O)C[C@@]21C` (some centres not stated), the Potency entry in the experiment listed under Homo sapiens [1] was “inactive”.

As for `CC1CC2C3CCC4=CC(=O)C=CC4(C)[C@@]3(F)C(O)CC2(C)[C@@]1(O)C(=O)COP(=O)(O)O` (some centres not stated), the Potency entry in the experiment listed under Homo sapiens [1] was “inactive”.

In the case of `CC1(C)O[C@@H]2C[C@H]3[C@@H]4CCC5=CC(=O)CC[C@]5(C)[C@@]4(F)[C@@H](O)C[C@]3(C)[C@]2(C(=O)CCl)O1` [HALCINONIDE], in the experiment filed under Homo sapiens [1], the Potency entry was “inactive”. In the experiment filed under Homo sapiens [7], the Potency is given as above 360.

With `CCC(=O)OCC(=O)C1(C)C(C)CC2C3CCC4=CC(=O)C=CC4(C)[C@@]3(F)CCC21C` (some centres not stated), the Potency entry in the experiment listed under Homo sapiens [1] was “inactive”.

In the case of `CC1(C)O[C@@H]2C[C@H]3[C@@H]4CCC5=CC(=O)C=C[C@]5(C)[C@@]4(F)[C@@H](O)C[C@]3(C)[C@]2(C(=O)CO)O1` [TRIAMCINOLONE ACETONIDE], the Potency in the experiment listed under Homo sapiens [7] was 100; in the experiment listed under Rattus norvegicus [3], 49.

As for `CC(=O)O[C@]1(C(=O)CO)CCC2C3CCC4=CC(=O)CCC4(C)C3C(O)CC21C` (some centres not stated), the Potency result in the experiment listed under Homo sapiens [1] is “inactive”.
